# Assay results: patent US20100063085A1, “METHOD OF TREATING LEARNING IMPAIRMENT IN DOWN'S SYNDROME SUBJECTS” (University Court of The University of Dundee, priority 2008, published 2010)
# Like-named read-outs stand apart in the source and are kept apart here.
# Key:
# PKA = PKA (Homo sapiens, UniProt P17612); assay: PKA 33P kinase assay; format: biochemical; settings: read-out: PKA activity as percentage of control without inhibitor; for remaining activity at 1 µM: inhibitor 1 μM; for remaining activity at 10 µM: inhibitor 10 μM
# Protocol: (§1) All assays (25.5 μl) were carried out at room temperature (21° C.) and were linear with respect to time and enzyme concentrations under the conditions used. Assays were performed for 30 minutes except assays for LCK and PKB which were performed for 15 minutes using Multidrop Micro reagent dispensers (Thermo Electron Corporation, Waltham, Mass. 02454, USA) in a 96-well format. The concentration of […] [γ-^33P] ATP (800 cpm/pmol) in the assays was one of three concentrations (5, 20 or 50 μM) in order to be at or below Km for ATP for the enzyme. Assays were initiated with MgATP and stopped by addition of 5 μl of 0.5M orthophosphoric acid. Assays were then harvested onto P81 filterplates using a unifilter harvester (PerkinElmer, Boston, Mass. 02118, USA), with a wash buffer of 50 mM orthophosphoric acid. Filterplates were then air dried overnight. 10 μl of Microscint O was added per well prior to counting for radioactivity.
# (§2) MKK1, JNK/SAPK1c, SAPK2a/p38, SAPK2b/p38β2, SAPK3/p38γ, SAPK4/p38δ, MAPK2/ERK2, MAPKAP-K1β, MAPKAP-K2, MSK1, PRAK, PKA, PKCα, PDK1, SGK, p70S6K, GSK3β, ROCK-II, PRK2, AMPK, CHK1, CHK2, CK2, PHK, LCK, were assayed according to Davies et al., (Davies, S. P., Reddy, H., Caivano, M. and Cohen, P. Biochem. J. 351, 95-105, 2000.
# (§3) CSK and CDK2/cyclinA, were assayed according to Bain et al. (Bain J, McLauchlan H, Elliott M, Cohen P. Biochem J. 371, 199-204, 2003., except that ATP concentrations were either 5, 20 or 50 micromolar so that they were at or below the Km for ATP. The ATP concentrations used were as follows, 5 μM for assays of MKK1, SAPK3, SAPK4, GSK3β, PRK2 CK2 20 μm for assays of JNK, SAPK2β, MAPKAP-K2, MSK1, PRAK, PKA, […], PDK1, SGK, p70S6K, ROCK-II, CHK1, CHK2, CSK, CDK2, and 50 μM for assays of SAPK2a, MAPK2/ERK2, AMPK, LCK, PHK and MAPKAP-K1β.
# JNK3 = JNK3 (Homo sapiens, UniProt P53779); assay: JNK3 33P kinase assay; format: biochemical; settings: read-out: JNK3 activity as percentage of control without inhibitor
# Sequence of JNK3 (P53779 whole entry, species assumed): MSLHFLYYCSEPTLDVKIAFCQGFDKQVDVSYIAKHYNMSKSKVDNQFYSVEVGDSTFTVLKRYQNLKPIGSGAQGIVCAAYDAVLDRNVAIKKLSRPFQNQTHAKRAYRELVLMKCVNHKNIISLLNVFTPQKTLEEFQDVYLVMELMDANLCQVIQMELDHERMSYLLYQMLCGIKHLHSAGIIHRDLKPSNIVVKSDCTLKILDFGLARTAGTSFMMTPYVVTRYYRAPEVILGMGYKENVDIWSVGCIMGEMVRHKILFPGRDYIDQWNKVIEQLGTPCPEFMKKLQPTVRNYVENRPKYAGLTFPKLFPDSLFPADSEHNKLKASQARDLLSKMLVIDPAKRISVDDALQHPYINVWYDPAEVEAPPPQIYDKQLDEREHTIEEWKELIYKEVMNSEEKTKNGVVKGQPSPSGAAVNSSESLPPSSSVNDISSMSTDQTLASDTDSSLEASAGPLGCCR
# Protocol: as §1
# The following kinases were assayed against the substrates indicated. Aurora B was assayed against the substrate peptide […] (300 μM), ERK8 and MST-2 were both assayed against MBP (0.33 mg/ml). IKKβ was assayed against the substrate peptide […] (300 μM), JNK3 was assayed against 3 μM ATF2[19-96]. MAPKAP-K3 and PKD1 were both assayed against […] (30 μM), MARK3 was assayed against CHKtide ([…]) substrate peptide (300 μM). MNK1 and MNK2 were both assayed against eIF4E protein (0.5 mg/ml). NEK7 was assayed against […] (300 μM), PIM2 was assayed against […] (300 μM), ΔPH PKBβ-S474D was assayed against Crosstide (30 μM), PLK1 was assayed against […] (300 μM). PRK2 was assayed against Long S6 peptide, […] (30 μM), RSK2 was assayed against […] (30 μM), SRC was assayed against cdc2 peptide, […], (300 μM) and SRPK1 was assayed against peptide […] (300 μM). All enzymes were diluted in 50 mM Tris/HCl pH 7.5, 0.1 mM EGTA, 1 mg/ml BSA, 0.1% β-mercaptoethanol buffer and assayed in an incubation containing 50 mM Tris/HCl pH7.5, 0.1 mM EGTA, 0.1% β-mercaptoethanol, CAMK-1 (5-20 mU) diluted in 50 mM Tris/HCl pH 7.5, 0.1 mM EGTA, 1 mg/ml BSA, 0.1% β-mercaptoethanol is assayed against substrate peptide […] in an incubation containing 50 mM Tris/HCl pH 7.5, 0.1 mM EGTA, 0.5 mM CaCl2, 0.3 μM calmodulin, 0.1% β-mereaptoethanol, 300 μM substrate peptide, 10 mM magnesium acetate and 0.05 mM [^33P-γ-ATP] (500-1000 cpm/pmole). EF2K (5-20 mU) diluted in 50 mM Hepes pH 6.6, 0.1% β-mercaptoethanol, 1 mg/ml BSA is assayed against a substrate peptide […] in an incubation containing 50 mM Hepes pH 6.6, 0.2 mM CaCl2, 0.3 μM Calmodulin, 0.05% b-mercaptoethanol, 300 μM substrate peptide, 10 mM magnesium acetate and 0.05 mM [^33P-γ-ATP] (500-1000 cpm/pmole).
# SAPK2b/p38β2 = SAPK2b/p38β2 (Homo sapiens, UniProt Q15759); assay: SAPK2b/p38β2 33P kinase assay; format: biochemical; settings: read-out: SAPK2b/p38β2 activity as percentage of control without inhibitor; for remaining activity at 1 µM: inhibitor 1 μM
# Sequence of SAPK2b/p38β2 (Q15759 whole entry): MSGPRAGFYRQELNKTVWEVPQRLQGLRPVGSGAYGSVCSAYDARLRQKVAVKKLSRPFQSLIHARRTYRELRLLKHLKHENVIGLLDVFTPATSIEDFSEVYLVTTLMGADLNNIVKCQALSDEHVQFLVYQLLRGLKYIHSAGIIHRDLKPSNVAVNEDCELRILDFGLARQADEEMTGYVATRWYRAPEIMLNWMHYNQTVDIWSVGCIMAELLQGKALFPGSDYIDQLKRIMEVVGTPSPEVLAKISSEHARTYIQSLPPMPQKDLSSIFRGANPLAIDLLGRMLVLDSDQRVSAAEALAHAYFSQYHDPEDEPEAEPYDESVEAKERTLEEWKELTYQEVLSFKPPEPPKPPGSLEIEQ
# Protocol: as §1, with “Assays” for “All assays (25.5 μl) were carried out at room temperature (21° C.) and were linear with respect to time and enzyme concentrations under the conditions used. Assays”
# as §2, §3
# NEK6 = NEK6 (Homo sapiens, UniProt Q9HC98); assay: biochemical; settings: read-out: NEK6 activity as percentage of control without inhibitor
# Sequence of NEK6 (Q9HC98 whole entry, species assumed): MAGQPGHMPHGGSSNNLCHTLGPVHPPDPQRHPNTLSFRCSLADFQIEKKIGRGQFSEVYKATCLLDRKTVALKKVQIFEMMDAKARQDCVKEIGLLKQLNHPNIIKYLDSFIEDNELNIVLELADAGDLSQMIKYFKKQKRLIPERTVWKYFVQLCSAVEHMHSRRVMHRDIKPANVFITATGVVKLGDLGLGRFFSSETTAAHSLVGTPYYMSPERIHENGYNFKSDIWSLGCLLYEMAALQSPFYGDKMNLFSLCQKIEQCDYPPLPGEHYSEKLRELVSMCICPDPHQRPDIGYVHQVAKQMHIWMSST
# Protocol: as §1
# NEK6 (5-20 mU diluted in 50 mM Tris (pH 7.5), 0.1 mM EGTA, 1 mg/ml BSA, 0.1%, β-Mercaptoethanol) is assayed against NEK6 peptide ([…]) in a final volume of 25.5 μl containing 50 mM Tris (pH 7.5), 0.1 mM EGTA, 0.01% Brij, 0.1%, β-Mercaptoethanol, NEK6 peptide (0.3 mM), 10 mM magnesium acetate and 0.05 mM [^33P- γATP](500-1000 cpm/pmole) and incubated for 30 min at room temperature.
# MKK1 = MKK1 (Homo sapiens, UniProt Q02750); assay: MKK1 33P kinase assay; format: biochemical; settings: read-out: MKK1 activity as percentage of control without inhibitor
# Sequence of MKK1 (Q02750 whole entry, species assumed): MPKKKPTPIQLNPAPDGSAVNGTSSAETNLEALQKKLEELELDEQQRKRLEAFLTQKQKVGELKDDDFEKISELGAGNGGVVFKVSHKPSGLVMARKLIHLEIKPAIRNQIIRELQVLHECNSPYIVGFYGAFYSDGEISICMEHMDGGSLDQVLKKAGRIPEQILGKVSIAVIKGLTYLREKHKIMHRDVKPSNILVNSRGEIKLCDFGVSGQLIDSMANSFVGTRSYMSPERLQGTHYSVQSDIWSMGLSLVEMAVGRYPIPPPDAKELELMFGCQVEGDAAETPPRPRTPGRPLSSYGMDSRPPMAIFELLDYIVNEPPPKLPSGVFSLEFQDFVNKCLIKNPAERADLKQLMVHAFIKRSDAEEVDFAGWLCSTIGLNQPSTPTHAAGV
# Protocol: as §1, §2, §3
Compound,remaining activity at 1 µM (PKA),remaining activity at 10 µM (PKA),remaining activity at 1 µM (JNK3),remaining activity at 10 µM (JNK3),remaining activity at 1 µM (SAPK2b/p38β2),remaining activity at 10 µM (SAPK2b/p38β2; inhibitor 10 μM),remaining activity at 1 µM (NEK6; inhibitor 1 μM),remaining activity at 10 µM (NEK6; inhibitor 10 μM),remaining activity at 1 µM (MKK1; inhibitor 1 μM),remaining activity at 10 µM (MKK1; inhibitor 10 μM),remaining activity at 10 µM (SAPK2b/p38β2),remaining activity at 1 µM (NEK6),remaining activity at 10 µM (NEK6),remaining activity at 1 µM (MKK1),remaining activity at 10 µM (MKK1),remaining activity at 1 µM (JNK3; inhibitor 1 μM),remaining activity at 10 µM (JNK3; inhibitor 10 μM)
COc1ccc2c3c([nH]c2c1)C(C)=NCC3 [Harmaline],70%,86%,87%,81%,91%,93%,99%,87%,47%,39%,–,–,–,–,–,–,–
COc1ccc2c(c1)[nH]c1c(C)nccc12 [Harmine],82%,92%,89%,83%,–,–,–,–,–,–,87%,96%,99%,76%,73%,–,–
CC1=NCCc2c1[nH]c1cc(O)ccc21 [Harmalol],90%,75%,–,–,88%,79%,94%,92%,92%,66%,–,–,–,–,–,92%,94%
